The values that follow come from US10759839B2, “Cell-penetrating peptide” (NEOREGEN BIOTECH, priority 2016, dated 2020).

The test system of experiment [1] is NIH3T3 cell line. In words: Cell penetration efficiency of FITC-labelled p53C, Tat-Ara-19 and ICT-53 (FIG. 7). The note with it: 1 μM, 1 hour. The experiment is classed as cell-based. The method, then:
FIG. 7 is a graph showing results of comparing the cell penetration efficiencies of p53C, Tat-ara-19 and ICT-53 peptides.
A p53C peptide having 22 amino acid sequences and Tat-Ara-19 peptide, as well as the ICT-53 peptide, in which the p53C peptide is fused to the Tat-Ara-19 peptide, were synthesized, then fluorescein isothiocyanate (FITC, fluorescent material) was adhered to the C-terminus thereof so as to fluoresce. These peptides were used to examine the cell penetration efficiency for 1 hour at a concentration of 1 μM in a NIH3T3 cell line. […] In this experiment, the penetration efficiency in a situation including serum was also examined.

The test system of experiment [2] is U2OS cancer cell line. In words: Anti-cancer effect of purified ICT-53 peptide (FIGS. 9 and 10). The experiment is classed as cell-based. Particulars: for each concentration.
For experiment [3], the system named is mesenchymal stem cell (MSC). As to the kind of experiment: Cell penetration of FITC-labelled peptide by concentration, FACS fluorescence intensity (FIG. 1). The experiment is classed as cell-based, human. The note with it: 1 hour. An excerpt:
FIG. 1 is a graph showing that a cell membrane penetration efficiency of Ara-27 cell-penetrating peptide is increased in proportion to a concentration in mesenchymal stem cell (MSC) derived from a human body. In the graph, a Y axis represents a fluorescence intensity, which is an index indicating an amount of introduced peptides per unit cell.
(§1) In order to confirm the cell penetration efficiency of each cell-penetrating peptide, fluorescein isothiocyanate (FITC, fluorescent material), which fluoresces each peptide, was adhered to each peptide, then penetration efficiencies thereof were examined.
When measuring the cell penetration efficiency, in order to remove each cell-penetrating peptide which may be adhered to the cell membrane surface, a Heparin & Trypsin washing method used in the Kaplan group was applied thereto [Kaplan I M, Wadia J S, Dowdy S F (2005) Cationic TAT peptide transduction domain enters cells by macropinocytosis. J Controlled release 102: 247-253). […]
In the mesenchymal stem cell (MSC), an amount of the cell-penetrating peptide (Ara-27) including an amino acid sequence of SEQ ID NO: 2 into the cell was determined for each concentration.

Experiment [4] relates to human-derived MSCs. In words: Fluorescence microscopy of peptide entry into cells (FIG. 2). The note with it: 1 μM, 30 minutes, medium containing 10% serum, heparin washing, trypsin. The experiment is classed as cell-based. Here is the method:
An experiment was conducted in a medium containing 10% serum, and after treatment for 30 minutes at a concentration of 1 μM, fluorescent peptides adhered to the cell surface were removed using a heparin washing method, and then the cell was separated therefrom by treatment with trypsin. FIG. 2 is photographs of cells taken by the fluorescence microscope after separation.

Experiment [5] relates to Human mesenchymal stem cells (human MSCs). In words: Confocal microscopy of intracellular localisation with membrane marker FM-64 (FIG. 3). The experiment is classed as cell-based. An excerpt: Further, in order to determine whether the Ara-27 cell-penetrating peptide is actually present in intracellular nuclei or cytoplasm, the Ara-27 peptide was fluorescently treated, and then analyzed using a confocal microscope. Human mesenchymal stem cells (human MSCs) were placed in a DMEM cell culture medium containing 10% FBS in a 6-well plate. […] Next, a membrane marker (FM-64) was used to examine whether the peptides are actually present inside the cell membrane. The cells were removed with trypsin to allow reagents to be inserted into the cell membrane, and the reagents were treated to perform the analysis. At this time, it can be confirmed that most of peptides were present in cytoplasmic parts inside the cell membranes, and some of the peptides were also present in the nucleus (FIG. 3).

Experiment [6] deals with NIH3T3 fibroblast. In words: Cell penetration efficiency of FITC-peptides, heparin and trypsin washing, FACS (FIG. 6). The experiment is classed as cell-based. The note with it: 1 μM.
Source text: FIG. 6 is a graph showing results of comparing the cell penetration efficiencies of Ara-27, ara-20, R8-Ara-19 and Ara-8 cell-penetrating peptides in a NIH3T3 fibroblast.
as §1
When measuring the cell penetration efficiency, in order to remove each cell-penetrating peptide which may be adhered to the cell membrane surface, a Heparin & Trypsin washing method used in the Kaplan group was applied thereto [Kaplan I M, Wadia J S, Dowdy S F (2005) Cationic TAT peptide transduction domain enters cells by macropinocytosis. J Controlled release 102: 247-253). In summary, in the experiments to be described below, each cell-penetrating peptide was put into a cell growth medium at a concentration of 1 μM, incubated for 30 minutes, and then the cells were washed 3 times with Heparin, followed by separating the cells with trypsin to perform a FACS analysis.
Next, the cell penetration efficiencies of Ara-27 and the cell-penetrating peptides including amino acid sequences of SEQ ID NO: 1 (Ara-20), SEQ ID NO: 3 (R8-Ara-19), and SEQ ID NO: 11 (Ara-8) of the examples in a NIH3T3 fibroblast were compared.

Entries after “also recorded” stand apart in the source; their conditions may differ. Where no end group is shown, it is not given here.

“RKKRRQRRCFRCRQAGHWISDCRLKSKGSRAHSSHLKSKKGQSTSRHKK (cysteines drawn unpaired) [ICT-53]”: in experiment [1], the “cell penetration efficiency (in words)” value was “high efficiency”. Further, the “anti-cancer effect, dependence on concentration” value in experiment [2] is recorded as “in proportion to the concentration”.
Consider “Ara-27: cell-penetrating peptide including an amino acid sequence of SEQ ID NO: 2, Arabidopsis thaliana-derived (RNQRKTVRCFRCRQAGHWISDCRLKSK; Ara-27)”, for which, in experiment [3] (for each concentration), the “amount of the peptide introduced per unit cell (fluorescence intensity)” value was “increased in proportion to the concentration”. In addition, in experiment [4], the “peptides that entered the cells, seen by fluorescence microscope” value is given as “found across all the cells; also recorded: high fluorescence intensity”. For the same substance, the “location of the peptide in the cell” value is listed as “most of the Ara-27 peptides were present in the cytoplasm” in experiment [5] (2 μM, DMEM containing 10% FBS) and “not only in the cytoplasm but also in the nucleus” in experiment [5] (5 μM, 18 hours after penetration, membrane marker). Also, the “persistence of the peptide in the cell” value in experiment [5] (5 μM, 18 hours after penetration) is recorded as “stably exist therein”. For the same substance, the “efficiency of penetrance into the cell” value in experiment [6] (within 30 minutes, environment including serum) is recorded as not below 90%.
In the case of “p53C: p53C peptide (SEQ ID NO: 5), peptide of a C-terminal region of a p53 protein, 22 amino acids (GSRAHSSHLKSKKGQSTSRHKK; p53C) [reference compound]”, the “cell penetration efficiency (in words)” value in experiment [1] was “did not penetrate into the cell”.
Take “Tat-PTD: Tat-PTD (SEQ ID NO: 12), a well-known cell-penetrating peptide, used as control group (RKKRRQRR; Tat-PTD) [reference compound]”: in experiment [3] (even at 5 μM), the “amount of the peptide introduced per unit cell (fluorescence intensity)” value is “remarkably low”. Moreover, in experiment [4], the “peptides that entered the cells, seen by fluorescence microscope” value is “very rarely found”. Moreover, the “cell penetration efficiency (in words)” value in experiment [6] (NIH3T3 fibroblast, 30 minutes) is recorded as “very low level”.
Consider “Tat-Ara-19: cell-penetrating peptide including an amino acid sequence of SEQ ID NO: 4 (RKKRRQRRCFRCRQAGHWISDCRLKSK; Tat-Ara-19)”, for which, in experiment [1], the “cell penetration efficiency (in words)” value is recorded as “high efficiency”.
